{"source": "patent US11180483B2", "about": "“Substituted reverse pyrimidine Bmi-1 inhibitors” (PTC Therapeutics, Inc., priority 2012, dated 2021)", "note": "pEC50: −log10 of the molar value.", "data": [{"system": "Bmi-1", "assay": "Sandwich ELISA Assay (Bmi-1 ELISA) in HT-1080 cells", "type": "cell-based", "experimental": "Cell Seeding and Compound Treatment (Day 1):\nHT-1080 cells were seeded at 8000 cells/well (50 μL) in 96-well tissue culture plates. After the cells became adherent (3-4 hours), 2× diluted stocks of test compounds in 50 μL DMEM containing 1% DMSO (final DMSO concentration was 0.5%) were added and the plates were incubated at 37° C. under 5% CO2 for 40-48 hours.\nELISA Plate First Antibody Preparation (Day 2):\nThe First Antibody (Millipore Mouse, monoclonal to mouse Bmi-1, clone F6, catalog #05-637) diluted to 2 μg/mL in PBS was added (100 μL) to each well of a Nunc MaxiSorp 96-well ELISA plate. The plate was covered with a plate seal and allowed to stand overnight.\nCell Lysate Preparation (Day 3):\nFresh 1× Lysis buffer was prepared on the day of the assay as follows: 1 mM EDTA, 150 mM NaCl, 0.5% Triton-X 100, 10 mM NaF, 20 mM B-Glycerophosphate, 1 mM DTT (in PBS, pH 7.2-7.4) and 1× HALT protease inhibitor cocktail (Pierce #78410).\nThe 1× Lysis Buffer (40 μL) was added to each well and the plate was shaken for 5-10 minutes on an orbital shaker to allow cell lysis, then diluent (1% BSA in PBS in 0.5% NP40) (100 μL) was added to each well.\nA standard curve was prepared at the following Bmi-1 concentrations: 8000, 4000, 2000, 1000, 500, 250, 125, 0 pg/mL The Bmi-1 Recombinant Protein Standard (Novus Biologicals PCGF4 Recombinant Protein (P01), catalog #H00000648-P01) used to prepare the standard curve was stored at −80° C. On first thaw, the Bmi-1 Recombinant Protein Standard was diluted to […] in Blocking Buffer (1% BSA in PBS; BSA: Fisher Scientific Catalog #1600-100). Aliquots were taken and refrozen at −80° C. The aliquots may be kept at 4° C. and reused after first thaw, but only within 1-2 weeks. The Bmi-1 Recombinant Protein Standard contains a GST-fusion tag that appears around 70 Kda on Western Blot.\nThe prepared ELISA plate was washed 3× with Wash Buffer (0.05% Tween-20 in PBS). The final wash was removed from the plate and the plate was blotted dry. Blocking Buffer (300 μL) (1% BSA in PBS) was added to each well. The plate was covered with a plate seal and incubated at room temperature for 1 hour. The blocked plate was washed 3× with Wash Buffer, then the final wash was removed and the plate was blotted dry. The previously prepared samples and standards were added (100 μL/well) and the plate was covered with a plate seal and incubated at 4° C. overnight.\nThe prepared ELISA plate was removed from 4° C., incubated at room temperature for 30 minutes, then washed and blotted dry as previously described for Day 3. The Second Antibody (Cell Signaling Rabbit anti-Bmi-1, Cat #2830) diluted to 1:600 in Blocking Buffer was added (100 μL) to each well, except as needed for background control wells. The plate was covered with a plate seal and incubated for 1.5 hrs at room temperature.\nThe ELISA plate was washed and blotted dry as previously described. The Third Antibody (Cell Signaling HRP conjugated anti-rabbit IgG (CellSignaling, Cat #:7074) diluted to 1:300 in Blocking Buffer was added (100 μL) to each well, except as needed for background control wells. The plate was incubated for 1 hr at room temperature.\nThe plate was washed and blotted dry as previously described, then prepared TMB substrate (TMB substrate kit, Pierce catalog #34021) (prepared by mixing kit reagents 1:1) (100 μL) was added per well. The plate was incubated for 20-30 minutes at room temperature in the dark, then Stop Solution (2 M sulfuric acid in water) (50 μL) was added per well. The plates were read at OD450 (experimental) and OD570 (reference).", "values": [{"smiles": "CN(C)c1ccc(Nc2ccnc(-c3c(C(F)(F)F)nc4ccccn34)n2)cn1", "note": "[Cpd 31, N^2,N^2-dimethyl-N^5-{2-[2-(trifluoromethyl)imidazo[1,2-a]pyridin-3-yl]pyrimidin-4-yl]pyridine-2,5-diamine]", "pEC50": "7.00 to 8.00"}, {"smiles": "FC(F)(F)c1ccc(Nc2ccnc(-c3c(C(F)(F)F)nc4ccc(Br)cn34)n2)cc1", "note": "[Cpd 32, 2-[6-bromo-2-(trifluoromethyl)imidazo[1,2-a]pyridin-3-yl]-N-[4-(trifluoromethyl)phenyl]pyrimidin-4-amine]", "pEC50": "5.52 to 7.00"}, {"smiles": "COc1ccc(Nc2ccnc(-c3c(C(F)(F)F)nc4ccc(Br)cn34)n2)cc1", "note": "[Cpd 33, 2-[6-bromo-2-(trifluoromethyl)imidazo[1,2-a]pyridin-3-yl]-N-(4-methoxyphenyl)pyrimidin-4-amine]", "pEC50": "7.00 to 8.00"}, {"smiles": "COc1ccc(Nc2ccnc(-c3c(C(F)(F)F)nc4ccccn34)n2)cc1F", "note": "[Cpd 34, N-(3-fluoro-4-methoxyphenyl)-2-[2-(trifluoromethyl)imidazo[1,2-a]pyridin-3-yl]pyrimidin-4-amine]", "pEC50": "8.00 to 9.00"}, {"smiles": "COc1ccc(Nc2ccnc(-c3c(C(F)(F)F)nc4ccccn34)n2)cc1Cl", "note": "[Cpd 35, N-(3-chloro-4-methoxyphenyl)-2-[2-(trifluoromethyl)imidazo[1,2-a]pyridin-3-yl]pyrimidin-4-amine]", "pEC50": "5.52 to 7.00"}, {"smiles": "Cc1ccc(Nc2ccnc(-c3c(C(F)(F)F)nc4ccccn34)n2)cc1Cl", "note": "[Cpd 36, N-(3-chloro-4-methylphenyl)-2-[2-(trifluoromethyl)imidazo[1,2-a]pyridin-3-yl]pyrimidin-4-amine]", "pEC50": "7.00 to 8.00"}, {"smiles": "CCOc1ccc(Nc2ccnc(-c3c(C(F)(F)F)nc4ccccn34)n2)cc1", "note": "[Cpd 37, N-(4-ethoxyphenyl)-2-[2-(trifluoromethyl)imidazo[1,2-a]pyridin-3-yl]pyrimidin-4-amine]", "pEC50": "7.00 to 8.00"}, {"smiles": "CC(C)c1ccc(Nc2ccnc(-c3c(C(F)(F)F)nc4ccccn34)n2)cc1", "note": "[Cpd 38, N-[4-(propan-2-yl)phenyl]-2-[2-(trifluoromethyl)imidazo[1,2-a]pyridin-3-yl]pyrimidin-4-amine]", "pEC50": "5.52 to 7.00"}, {"smiles": "FC(F)(F)c1nc2ccccn2c1-c1nccc(Nc2ccc(-n3cccn3)cc2)n1", "note": "[Cpd 39, N-[4-(1H-pyrazol-1-yl)phenyl]-2-[2-(trifluoromethyl)imidazo[1,2-a]pyridin-3-yl]pyrimidin-4-amine]", "pEC50": "5.52 to 7.00"}, {"smiles": "COc1ccc(Nc2ccnc(-n3c(C)nc4ccccc43)n2)cc1Cl", "note": "[Cpd 40, N-(3-chloro-4-methoxyphenyl)-2-(2-methyl-1H-benzimidazol-1-yl)pyrimidin-4-amine]", "pEC50": "5.52 to 7.00"}, {"smiles": "Cc1nc2ccccc2n1-c1nccc(Nc2ccc(C(F)(F)F)cc2)n1", "note": "[Cpd 41, 2-(2-methyl-1H-benzimidazol-1-yl)-N-[4-(trifluoromethyl)phenyl]pyrimidin-4-amine]", "pEC50": "5.52 to 7.00"}, {"smiles": "COc1ccc(Nc2ccnc(-n3c(C(F)(F)F)nc4ccccc43)n2)cc1Cl", "note": "[Cpd 42, N-(3-chloro-4-methoxyphenyl)-2-[2-(trifluoromethyl)-1H-benzimidazol-1-yl]pyrimidin-4-amine]", "pEC50": "7.00 to 8.00"}, {"smiles": "Cc1ccc(Nc2nc(-c3c(C(F)(F)F)nc4ccccn34)ncc2F)cc1", "note": "[Cpd 43, 5-fluoro-N-(4-methylphenyl)-2-[2-(trifluoromethyl)imidazo[1,2-a]pyridin-3-yl]pyrimidin-4-amine]", "pEC50": "7.00 to 8.00"}, {"smiles": "Cc1ccc(Nc2nc(-c3c(C(F)(F)F)nc4ccccn34)ncc2Cl)cc1", "note": "[Cpd 44, 5-chloro-N-(4-methylphenyl)-2-[2-(trifluoromethyl)imidazo[1,2-a]pyridin-3-yl]pyrimidin-4-amine]", "pEC50": "5.52 to 7.00"}, {"smiles": "COc1ccc(Nc2ccnc(-c3c(C(F)(F)F)nc4cnccn34)n2)cc1", "note": "[Cpd 45, N-(4-methoxyphenyl)-2-[2-(trifluoromethyl)imidazo[1,2-a]pyrazin-3-yl]pyrimidin-4-amine]", "pEC50": "5.52 to 7.00"}, {"smiles": "FC(F)(F)c1ccc(Nc2ccnc(-c3c(C(F)(F)F)nc4cnccn34)n2)cc1", "note": "[Cpd 46, 2-[2-(trifluoromethyl)imidazo[1,2-a]pyrazin-3-yl]-N-[4-(trifluoromethyl)phenyl]pyrimidin-4-amine]", "pEC50": "5.52 to 7.00"}, {"smiles": "FC(F)(F)c1nc2cnccn2c1-c1nccc(Nc2ccc(Cl)cc2)n1", "note": "[Cpd 47, N-(4-chlorophenyl)-2-[2-(trifluoromethyl)imidazo[1,2-a]pyrazin-3-yl]pyrimidin-4-amine]", "pEC50": "5.52 to 7.00"}, {"smiles": "COc1ccc2nc(C(F)(F)F)c(-c3nccc(Nc4ccc(C(F)(F)F)cc4)n3)n2c1", "note": "[Cpd 48, 2-[6-methoxy-2-(trifluoromethyl)imidazo[1,2-a]pyridin-3-yl]-N-[4-(trifluoromethyl)phenyl]pyrimidin-4-amine]", "pEC50": "5.52 to 7.00"}, {"smiles": "COc1ccc2nc(C(F)(F)F)c(-c3nccc(Nc4ccc(OC(F)(F)F)cc4)n3)n2c1", "note": "[Cpd 49, 2-[6-methoxy-2-(trifluoromethyl)imidazo[1,2-a]pyridin-3-yl]-N-[4-(trifluoromethoxy)phenyl]pyrimidin-4-amine]", "pEC50": "5.52 to 7.00"}, {"smiles": "COc1ccc(Nc2ccnc(-c3c(C(F)(F)F)nc4ccc(OC)cn34)n2)cc1", "note": "[Cpd 50, N-(4-methoxyphenyl)-2-[6-methoxy-2-(trifluoromethyl)imidazo[1,2-a]pyridin-3-yl]pyrimidin-4-amine]", "pEC50": "7.00 to 8.00"}, {"smiles": "COc1ccc2nc(C(F)(F)F)c(-c3nccc(Nc4ccc(OC(F)F)cc4)n3)n2c1", "note": "[Cpd 51, N-[4-(difluoromethoxy)phenyl]-2-[6-methoxy-2-(trifluoromethyl)imidazo[1,2-a]pyridin-3-yl]pyrimidin-4-amine]", "pEC50": "5.52 to 7.00"}, {"smiles": "Cc1nc2ccccc2n1-c1nc(NCCO)cc(Nc2ccc(OC(F)F)cc2)n1", "note": "[Cpd 52, 2-{[6-{[4-(difluoromethoxy)phenyl]amino}-2-(2-methyl-1H-benzimidazol-1-yl)pyrimidin-4-yl]amino}ethanol]", "pEC50": "5.52 to 7.00"}, {"smiles": "FC(F)Oc1ccc(Nc2ccnc(-c3c(C(F)(F)F)nc4cnccn34)n2)cc1", "note": "[Cpd 53, N-[4-(difluoromethoxy)phenyl]-2-[2-(trifluoromethyl)imidazo[1,2-a]pyrazin-3-yl]pyrimidin-4-amine]", "pEC50": "5.52 to 7.00"}, {"smiles": "Fc1ccc2nc(C(F)(F)F)c(-c3nccc(Nc4ccc(C(F)(F)F)cc4)n3)n2c1", "note": "[Cpd 54, 2-[6-fluoro-2-(trifluoromethyl)imidazo[1,2-a]pyridin-3-yl]-N-[4-(trifluoromethyl)phenyl]pyrimidin-4-amine]", "pEC50": "5.52 to 7.00"}, {"smiles": "Fc1ccc2nc(C(F)(F)F)c(-c3nccc(Nc4ccc(OC(F)F)cc4)n3)n2c1", "note": "[Cpd 55, N-[4-(difluoromethoxy)phenyl]-2-[6-fluoro-2-(trifluoromethyl)imidazo[1,2-a]pyridin-3-yl]pyrimidin-4-amine]", "pEC50": "5.52 to 7.00"}, {"smiles": "FC(F)(F)c1ccc(Nc2ccnc(-c3c(C(F)(F)F)nn4ccccc34)n2)cc1", "note": "[Cpd 56, N-[4-(trifluoromethyl)phenyl]-2-[2-(trifluoromethyl)pyrazolo[1,5-a]pyridin-3-yl]pyrimidin-4-amine]", "pEC50": "5.52 to 7.00"}, {"smiles": "Cc1nc2ccccc2n1-c1nc(NCCO)cc(Nc2ccc(C(F)(F)F)cc2)n1", "note": "[Cpd 57, 2-{[2-(2-methyl-1H-benzimidazol-1-yl)-6-{[4-(trifluoromethyl)phenyl]amino}pyrimidin-4-yl]amino}ethanol]", "pEC50": "5.52 to 7.00"}, {"smiles": "COCCNc1cc(Nc2ccc(C(F)(F)F)cc2)nc(-n2c(C)nc3ccccc32)n1", "note": "[Cpd 58, N^4-(2-methoxyethyl)-2-(2-methyl-1H-benzimidazol-1-yl)-N^6-[4-(trifluoromethyl)phenyl]pyrimidine-4,6-diamine]", "pEC50": "5.52 to 7.00"}, {"smiles": "COCCNc1cc(Nc2ccc(OC(F)F)cc2)nc(-n2c(C)nc3ccccc32)n1", "note": "[Cpd 59, N^4-[4-(difluoromethoxy)phenyl]-N^6-(2-methoxyethyl)-2-(2-methyl-1H-benzimidazol-1-yl)pyrimidine-4,6-diamine]", "pEC50": "5.52 to 7.00"}]}]}
